This is an account of results in PMC4887073, “Investigating the Role of Loop C Hydrophilic Residue ‘T244’ in the Binding Site of ρ1 GABAC Receptors via Site Mutation and Partial Agonism” (PLoS ONE, 2016).

Where two headings read alike, the source gives them in different places.

In assay [1] the target is T1, human ρ1 GABAC WT receptors (Homo sapiens, UniProt P24046).
T1 construct: expressed in transfected cells; host or cells: Xenopus laevis oocytes injected with cRNA
The assay can be described thus: Two-electrode voltage-clamp electrophysiology, Xenopus oocytes expressing ρ1 GABAC WT receptors. It is filed as cell-based. To be noted: for Emax: read-out: efficacy relative to the GABA maximal response, ligand applied alone; for additive effect on GABA EC50 response (GABA EC50 response set to 100%): co-applied with GABA EC50. The protocol: Human ρ1 cDNA subcloned into pcDNA1.1 (Invitrogen, San Diego, CA, USA) was kindly provided by Dr. George Uh1 (National Institute for Drug Abuse, Baltimore, MD, USA).
(§1) ρ1 GABAC WT and mutant plasmids DNA were linearized by incubation with Xba1. ρ1 WT and mutant cRNA were synthesized using the T7 Transcription mMESSAGE mMACHINE Kit (Ambion, Austin, TX, USA) following the procedure described by the manufacture. The quantity and quality of synthesized CRNA was determined by absorbance at 260–280 nm using Nanodrop Spectrophotometer (Thermo Scientific, Wilmington, DE, USA). The purity of synthesized cRNA was confirmed by agarose gel electrophoresis (0.9%) using the GelDoc 1000 (Bio-Rad Laboratories, Hercules, CA USA).
(§2) A microprocessor-controlled micropipette puller (PUL-100, World Precision Instruments, Inc. FL, USA) was used to make micropipettes then RNA pulled up into the micropipette by a positive-displacement using micro-injector (Nanoliter micro-injector, World Precision Instruments, Inc. FL, USA). Oocytes were sorted and healthy ones were injected with 35–50 ng of ρ cRNA unless otherwise mentioned.
(§3) The injected oocytes were incubated for between two and four days after injection with desired RNA. Two-electrode voltage clamp instrument; Geneclamp 500 amplifier (Axon Instrument, Sydney, NSW, Australia) and Chart version 5.5.6 was used to measure the various activities at the receptors expressed by these oocytes. The recording microelectrodes were prepared by pulling using PUL-100 micropipette puller (World precision Instruments, Inc. FL, USA) and filled with 3 M KCl.
(§4) Dose response curves were generated using GraphPad PRISM 5.02 (GraphPad Software San Diego, CA).
(§5) The inhibitory concentration curves were generated using GraphPad PRISM 5.02 and IC50 values were calculated using Eq 2.
In general terms: Two-electrode voltage clamp is typically applied to oocytes expressing channels or transporters.

The target in assay [2] is T2, ρ1 GABAC T244A mutant receptors (Homo sapiens, UniProt P24046, T265A).
T2 construct: expressed in transfected cells; host or cells: Xenopus laevis oocytes injected with cRNA (raised to 300 ng/μl)
The experiment in a line: Two-electrode voltage-clamp electrophysiology, Xenopus oocytes expressing ρ1 T244A mutant receptors. The assay is classed as cell-based. The procedure: (§6) Pairs of the complementary mutagenic oligonucleotide primers were first designed to introduce single point mutations at human ρ1 GABAC subunit using UniProt. Primers were made by life technologies (Life Technologies^TM Australia Pty Ltd).
(§7) Site-directed mutagenesis was performed using QuikChange II site-directed mutagenesis kit as described by the manufacturer (Stratagene).
as §1, §2, §3, §4

For assay [3], the target named is T3, ρ1 GABAC T244S mutant receptors (Homo sapiens, UniProt P24046, T265S).
T3 construct: expressed in transfected cells; host or cells: Xenopus laevis oocytes injected with cRNA
The experiment in a line: Two-electrode voltage-clamp electrophysiology, Xenopus oocytes expressing ρ1 T244S mutant receptors. It is filed as cell-based. To be noted: for effect of T244S mutation on antagonist potency: ρ1 T244S compared to WT. The protocol: as §6, §7, §1, §2, §3, §4, §5

For assay [4], the target named is T4, ρ1 GABAC T244C mutant receptors (Homo sapiens, UniProt P24046, T265C).
T4 construct: expressed in transfected cells; host or cells: Xenopus laevis oocytes injected with cRNA (raised to 300 ng/μl)
The experiment in a line: Two-electrode voltage-clamp electrophysiology, Xenopus oocytes expressing ρ1 T244C mutant receptors. It is filed as cell-based. The protocol: as §6, §7, §1, §2, §3
Current responses were normalized to the maximum GABA-activated current (or other ligand which is stated as required) and expressed as a percentage, which was fitted by least squares to Hill equation (Eq 1). Dose response curves were generated using GraphPad PRISM 5.02 (GraphPad Software San Diego, CA).
GABA was first tested on all mutant receptors in order to determine the functionality of these receptors.

For assay [5], the target named is T3, ρ1 GABAC T244S mutant receptors. To be noted: agonist effects eliminated; cited from earlier work.
Assay [6] has as its target T1, human ρ1 GABAC WT receptors. The arrangement: method as in PMID 8386310. To be noted: agonist applied alone; cited from earlier work.
Where [7] appears, read: read-out: efficacy relative to the GABA maximal response, ρ1 T244S, ligand applied alone.
The mark [8] stands for this setting: high GABA concentrations, 300 ng/μl RNA.

T3 sequence (P24046 22-479 T265S): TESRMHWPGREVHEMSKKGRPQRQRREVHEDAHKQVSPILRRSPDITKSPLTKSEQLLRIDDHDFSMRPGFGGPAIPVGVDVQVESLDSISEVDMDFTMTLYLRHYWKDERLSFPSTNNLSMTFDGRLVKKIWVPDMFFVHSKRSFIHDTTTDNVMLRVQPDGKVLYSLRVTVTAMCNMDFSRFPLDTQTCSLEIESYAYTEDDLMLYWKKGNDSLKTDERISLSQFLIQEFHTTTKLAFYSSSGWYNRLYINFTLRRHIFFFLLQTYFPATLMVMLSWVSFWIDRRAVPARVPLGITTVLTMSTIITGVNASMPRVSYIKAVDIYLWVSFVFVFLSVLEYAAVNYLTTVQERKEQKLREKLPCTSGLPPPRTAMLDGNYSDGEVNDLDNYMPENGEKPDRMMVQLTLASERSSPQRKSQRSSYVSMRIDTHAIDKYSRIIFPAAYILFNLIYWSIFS
T4 sequence (P24046 22-479 T265C): as the sequence (P24046 22-479 T265S) above, with S244C counted along it
T1 sequence (P24046 22-479): as the sequence (P24046 22-479 T265S) above, with S244T counted along it
T2 sequence (P24046 22-479 T265A): as the sequence (P24046 22-479 T265S) above, with S244A counted along it

One may read the IC50 as the concentration at which inhibition is half-maximal. Higher therefore signals lower potency. Regarding `NCCCCC(=O)O` [5-aminovaleric acid], the results for the IC50 in assay [1] and in assay [3] were 37 µM and 17 µM, respectively. Besides, in assay [1] (ρ1 WT, applied alone), the agonist character result is on record as “weak partial agonists”. For the same molecule, the “efficacy compared with GABA” value in assay [2] is recorded as “less efficacious than GABA”.

The EC50 is the concentration at which the effect is half-maximal. Regarding `NC/C=C\C(=O)O` [CACA], the EC50 in assay [1] (agonist applied alone, ρ1 WT) worked out at 95 µM. For the same molecule, the Emax in assay [1] (ρ1 WT) turned out to be 60%; in assay [3] (setting [7]), 2%. The “additive effect, % of GABA EC50 efficacy” value in assay [1] (ρ1 WT, co-applied with GABA EC50, at 100 μM ligand) was found to be 150%. The “magnitude of response, % of GABA IMAX” value in assay [3] (ρ1 T244S, 300 μM applied alone) was “less than 2%”. The agonist activity entry in assay [3] (ρ1 T244S, applied alone, minimal response at 300 μM) was “almost inactive”. For the same molecule, the “enhancement of the GABA EC50 effect” value in assay [3] (ρ1 T244S, co-applied with GABA EC50, at 100 μM ligand) is roughly 20%.

For `NCCCC(=O)O` [GABA, γ-aminobutyric acid], in assay [2] (30 mM co-applied with 30 mM β-alanine), the “effect on β-alanine response” value was “moderately inhibits”. Moreover, the “sensitivity of receptors to GABA” value in assay [2] (GABA 30mM, 50–100 ng/μl RNA) is on record as “non-functional or insensitive”; in assay [2] (setting [8]), “weakly responsive”; in assay [4] (GABA 30mM, 50–100 ng/μl RNA), “non-functional or insensitive”; in assay [4] (setting [8]), “weakly responsive”. Also, the response entry in assay [4] (30 mM, five times the RNA normally injected) is given as “very weak response”.

For `CS(=O)(=O)SCCN` [MTSEA, 2-aminoethylmethane thiosulfonate], the activation result in assay [1] (ρ1 WT, applied alone) was “very weak efficacy and potency”. Further, the “effect on GABA EC50 response” value in assay [1] (ρ1 WT, co-applied with GABA EC50, concentrations below 100 μM) was “weak additive effects”; in assay [1] (ρ1 WT, co-applied with GABA EC50, concentrations of 100 μM and above), “weakly antagonizes”. For the same molecule, the “potency and efficacy compared with GABA” value in assay [4] (reversible responses) is “greater potency and efficacy than GABA”.

Take `NC/C=C/C(=O)O` [TACA, trans-aminocrotonic acid]: the Emax amounted to 95% in assay [1] (ρ1 WT) and 110% in assay [3] (setting [7]). The “efficacy compared with GABA” value in assay [2] is listed as “less efficacious than GABA”. Further, the EC50 in assay [3] (agonist applied alone, ρ1 T244S) came out at 14 µM. In addition, the “fold decrease in potency/activity” value in assay [3] (ρ1 T244S compared to ρ1 WT) is 25 fold.

Take `Oc1noc2c1CCNC2` [THIP, 4,5,6,7-tetrahydroisoxazolo[5,4-c]pyridin-3-ol]: the “effect of T244S mutation on antagonist potency” value in assay [3] is recorded as “no effect”.

With `CP(=O)(O)C1=CCNCC1` [TPMPA], the half-maximal inhibitory concentration (IC50) in assay [1] (ρ1 WT) was 2.3 µM. Further, the “effect when applied alone” value in assay [2] is listed as “no effect”. Further, the “effect on β-alanine response” value in assay [2] (1 mM against β-alanine response (30 mM)) is recorded as “weakly antagonizes”. The “effect of T244S mutation on antagonist potency” value in assay [3] is given as “no effect”.

In the case of `NCC(=O)O` [glycine], the agonist character entry in assay [1] (ρ1 WT, applied alone) was “weak partial agonists”. The “direct activation of receptors” value amounted to 25% in assay [1] (ρ1 WT, at mM concentrations, applied alone) and 2% in assay [3] (ρ1 T244S, at mM concentrations, applied alone). For the same molecule, the “additive effect on GABA EC50 response (GABA EC50 response set to 100%)” value in assay [1] (ρ1 WT) is 180%; in assay [3] (ρ1 T244S, co-applied with GABA EC50), 145%. The “efficacy compared with GABA” value in assay [2] is reported as “less efficacious than GABA”. Besides, the “maximum efficacy relative to the GABA maximal response at 30 mM” value in assay [3] (ρ1 T244S, ligand applied alone) is reported as 8%.

Take `O=C(O)Cc1c[nH]cn1` [imidazole-4-acetic acid]: the “mode of action at mutant receptors” value in assay [5] was “acted only as competitive antagonists”.

Consider `O=C(O)C1=CCNCC1` [isoguvacine], for which, in assay [1] (ρ1 WT), the Emax was 45% and the “additive effect on GABA EC50 response (GABA EC50 response set to 100%)” value is 135%. Also, the IC50 in assay [3] was 25.3 µM. Further, the EC50 in assay [6] was 200 µM.

For the molecule `NCc1cc(=O)[nH]o1` [muscimol], the “efficacy compared with GABA” value in assay [2] is “less efficacious than GABA”. Besides, the “mode of action at mutant receptors” value in assay [5] is “acted only as competitive antagonists”.

Consider `NCCC(=O)O` [β-alanine], for which the IC50 in assay [1] stood at 120 µM; in assay [3] it was 1000 µM. In addition, the “weak additive effect on GABA EC50 response” value in assay [1] (xenopus oocytes) was found to be 125%; in assay [3] (xenopus oocytes), 115%. For the same molecule, the agonist character entry in assay [1] (ρ1 WT, applied alone) was “weak partial agonists”. The “inhibition of GABA EC50” value in assay [1] (ρ1 WT, concentrations greater than 100 μM) turned out to be 60%; in assay [3] (ρ1 T244S, concentrations greater than 100 μM), 60%. Besides, the EC50 in assay [2] (300 ng/μl mutant RNA injected) stood at 1500 µM. Also, the “efficacy compared with GABA” value in assay [2] (30 mM concentration) was “approximately two times more efficacious than GABA”. In addition, the Emax in assay [3] (read-out: maximum efficacy relative to the GABA maximal response at 30 mM, ρ1 T244S, ligand applied alone) amounted to 5%. In addition, the “fold increase of IC50” value in assay [3] (ρ1 T244S compared to ρ1 WT, against GABA EC50) is given as 8 fold.
